The NIST ThermoML archive (doi:10.1016/j.jct.2016.04.014)
Numbers after ± are expanded uncertainties.

Details: Liquid, Vibrating tube method

CCO [ethanol]
Details	mass density [kg/m3]
288.15 K, 100 kPa	793.7 ± 1.7
288.15 K, 1000 kPa	794.4 ± 1.7
288.15 K, 5000 kPa	797.6 ± 1.7
288.15 K, 10000 kPa	801.5 ± 1.7
288.15 K, 15000 kPa	805.3 ± 1.7
288.15 K, 20000 kPa	808.9 ± 1.7
288.15 K, 25000 kPa	812.4 ± 1.7
288.15 K, 30000 kPa	815.7 ± 1.7
288.15 K, 35000 kPa	819 ± 1.7
288.15 K, 40000 kPa	822.1 ± 1.7
288.15 K, 45000 kPa	825.1 ± 1.7
288.15 K, 50000 kPa	828 ± 1.7
288.15 K, 55000 kPa	830.7 ± 1.8
288.15 K, 60000 kPa	833.3 ± 1.8
293.15 K, 100 kPa	789.4 ± 1.7
293.15 K, 1000 kPa	790.2 ± 1.7
293.15 K, 5000 kPa	793.5 ± 1.7
293.15 K, 10000 kPa	797.4 ± 1.7
293.15 K, 15000 kPa	801.3 ± 1.7
293.15 K, 20000 kPa	805 ± 1.7
293.15 K, 25000 kPa	808.6 ± 1.7
293.15 K, 30000 kPa	812 ± 1.7
293.15 K, 35000 kPa	815.3 ± 1.7
293.15 K, 40000 kPa	818.5 ± 1.7
293.15 K, 45000 kPa	821.5 ± 1.7
293.15 K, 50000 kPa	824.5 ± 1.7
293.15 K, 55000 kPa	827.2 ± 1.8
293.15 K, 60000 kPa	829.9 ± 1.8
298.15 K, 100 kPa	785.2 ± 1.7
298.15 K, 1000 kPa	785.9 ± 1.7
298.15 K, 5000 kPa	789.3 ± 1.7
298.15 K, 10000 kPa	793.4 ± 1.7
298.15 K, 15000 kPa	797.3 ± 1.7
298.15 K, 20000 kPa	801.1 ± 1.7
298.15 K, 25000 kPa	804.8 ± 1.7
298.15 K, 30000 kPa	808.3 ± 1.7
298.15 K, 35000 kPa	811.7 ± 1.7
298.15 K, 40000 kPa	814.9 ± 1.7
298.15 K, 45000 kPa	818 ± 1.7
298.15 K, 50000 kPa	821 ± 1.8
298.15 K, 55000 kPa	823.8 ± 1.8
298.15 K, 60000 kPa	826.5 ± 1.8
303.15 K, 100 kPa	780.9 ± 1.7
303.15 K, 101 kPa	780.83 ± 0.15
303.15 K, 1000 kPa	781.6 ± 1.7
303.15 K, 5000 kPa	785.1 ± 1.7
303.15 K, 10000 kPa	789.3 ± 1.7
303.15 K, 15000 kPa	793.3 ± 1.7
303.15 K, 20000 kPa	797.2 ± 1.7
303.15 K, 25000 kPa	801 ± 1.7
303.15 K, 30000 kPa	804.6 ± 1.7
303.15 K, 35000 kPa	808 ± 1.7
303.15 K, 40000 kPa	811.3 ± 1.7
303.15 K, 45000 kPa	814.5 ± 1.7
303.15 K, 50000 kPa	817.5 ± 1.8
303.15 K, 55000 kPa	820.3 ± 1.8
303.15 K, 60000 kPa	823.1 ± 1.8
308.15 K, 100 kPa	776.5 ± 1.7
308.15 K, 1000 kPa	777.3 ± 1.7
308.15 K, 5000 kPa	780.9 ± 1.7
308.15 K, 10000 kPa	785.2 ± 1.7
308.15 K, 15000 kPa	789.3 ± 1.7
308.15 K, 20000 kPa	793.3 ± 1.7
308.15 K, 25000 kPa	797.1 ± 1.7
308.15 K, 30000 kPa	800.8 ± 1.7
308.15 K, 35000 kPa	804.3 ± 1.7
308.15 K, 40000 kPa	807.7 ± 1.7
308.15 K, 45000 kPa	810.9 ± 1.7
308.15 K, 50000 kPa	814 ± 1.8
308.15 K, 55000 kPa	816.9 ± 1.8
308.15 K, 60000 kPa	819.6 ± 1.8
313.15 K, 100 kPa	772.1 ± 1.7
313.15 K, 101 kPa	772.1 ± 0.15
313.15 K, 1000 kPa	773 ± 1.7
313.15 K, 5000 kPa	776.6 ± 1.7
313.15 K, 10000 kPa	781 ± 1.7
313.15 K, 15000 kPa	785.3 ± 1.7
313.15 K, 20000 kPa	789.4 ± 1.7
313.15 K, 25000 kPa	793.3 ± 1.7
313.15 K, 30000 kPa	797 ± 1.7
313.15 K, 35000 kPa	800.6 ± 1.7
313.15 K, 40000 kPa	804.1 ± 1.7
313.15 K, 45000 kPa	807.4 ± 1.7
313.15 K, 50000 kPa	810.5 ± 1.8
313.15 K, 55000 kPa	813.4 ± 1.8
313.15 K, 60000 kPa	816.2 ± 1.8
318.15 K, 100 kPa	767.7 ± 1.7
318.15 K, 1000 kPa	768.5 ± 1.7
318.15 K, 5000 kPa	772.3 ± 1.7
318.15 K, 10000 kPa	776.8 ± 1.7
318.15 K, 15000 kPa	781.2 ± 1.7
318.15 K, 20000 kPa	785.4 ± 1.7
318.15 K, 25000 kPa	789.4 ± 1.7
318.15 K, 30000 kPa	793.2 ± 1.7
318.15 K, 35000 kPa	796.9 ± 1.7
318.15 K, 40000 kPa	800.4 ± 1.7
318.15 K, 45000 kPa	803.8 ± 1.8
318.15 K, 50000 kPa	806.9 ± 1.8
318.15 K, 55000 kPa	809.9 ± 1.8
318.15 K, 60000 kPa	812.8 ± 1.8
323.15 K, 100 kPa	763.2 ± 1.7
323.15 K, 101 kPa	763.22 ± 0.15
323.15 K, 1000 kPa	764.1 ± 1.7
323.15 K, 5000 kPa	768 ± 1.7
323.15 K, 10000 kPa	772.6 ± 1.7
323.15 K, 15000 kPa	777.1 ± 1.7
323.15 K, 20000 kPa	781.4 ± 1.7
323.15 K, 25000 kPa	785.5 ± 1.7
323.15 K, 30000 kPa	789.4 ± 1.7
323.15 K, 35000 kPa	793.2 ± 1.7
323.15 K, 40000 kPa	796.8 ± 1.7
323.15 K, 45000 kPa	800.2 ± 1.8
323.15 K, 50000 kPa	803.4 ± 1.8
323.15 K, 55000 kPa	806.5 ± 1.8
323.15 K, 60000 kPa	809.3 ± 1.8
328.15 K, 100 kPa	758.7 ± 1.7
328.15 K, 1000 kPa	759.6 ± 1.7
328.15 K, 5000 kPa	763.6 ± 1.7
328.15 K, 10000 kPa	768.3 ± 1.7
328.15 K, 15000 kPa	772.9 ± 1.7
328.15 K, 20000 kPa	777.3 ± 1.7
328.15 K, 25000 kPa	781.6 ± 1.7
328.15 K, 30000 kPa	785.6 ± 1.7
328.15 K, 35000 kPa	789.5 ± 1.7
328.15 K, 40000 kPa	793.1 ± 1.7
328.15 K, 45000 kPa	796.6 ± 1.8
328.15 K, 50000 kPa	799.9 ± 1.8
328.15 K, 55000 kPa	803 ± 1.8
328.15 K, 60000 kPa	805.9 ± 1.8
333.15 K, 100 kPa	754.1 ± 1.7
333.15 K, 1000 kPa	755 ± 1.7
333.15 K, 5000 kPa	759.1 ± 1.7
333.15 K, 10000 kPa	764 ± 1.7
333.15 K, 15000 kPa	768.8 ± 1.7
333.15 K, 20000 kPa	773.3 ± 1.7
333.15 K, 25000 kPa	777.6 ± 1.7
333.15 K, 30000 kPa	781.7 ± 1.7
333.15 K, 35000 kPa	785.7 ± 1.7
333.15 K, 40000 kPa	789.4 ± 1.7
333.15 K, 45000 kPa	792.9 ± 1.8
333.15 K, 50000 kPa	796.3 ± 1.8
333.15 K, 55000 kPa	799.4 ± 1.8
333.15 K, 60000 kPa	802.4 ± 1.8
343.15 K, 100 kPa	744.6 ± 1.7
343.15 K, 1000 kPa	745.6 ± 1.7
343.15 K, 5000 kPa	750 ± 1.7
343.15 K, 10000 kPa	755.2 ± 1.7
343.15 K, 15000 kPa	760.2 ± 1.7
343.15 K, 20000 kPa	765 ± 1.7
343.15 K, 25000 kPa	769.6 ± 1.7
343.15 K, 30000 kPa	773.9 ± 1.7
343.15 K, 35000 kPa	778 ± 1.7
343.15 K, 40000 kPa	781.9 ± 1.8
343.15 K, 45000 kPa	785.6 ± 1.8
343.15 K, 50000 kPa	789.1 ± 1.8
343.15 K, 55000 kPa	792.3 ± 1.8
343.15 K, 60000 kPa	795.3 ± 1.8
353.15 K, 1000 kPa	736 ± 1.7
353.15 K, 5000 kPa	740.6 ± 1.7
353.15 K, 10000 kPa	746.2 ± 1.7
353.15 K, 15000 kPa	751.5 ± 1.7
353.15 K, 20000 kPa	756.5 ± 1.7
353.15 K, 25000 kPa	761.3 ± 1.7
353.15 K, 30000 kPa	765.9 ± 1.7
353.15 K, 35000 kPa	770.2 ± 1.7
353.15 K, 40000 kPa	774.3 ± 1.8
353.15 K, 45000 kPa	778.1 ± 1.8
353.15 K, 50000 kPa	781.7 ± 1.8
353.15 K, 55000 kPa	785.1 ± 1.8
353.15 K, 60000 kPa	788.2 ± 1.8
363.15 K, 1000 kPa	725.9 ± 1.7
363.15 K, 5000 kPa	730.8 ± 1.7
363.15 K, 10000 kPa	736.7 ± 1.7
363.15 K, 15000 kPa	742.4 ± 1.7
363.15 K, 20000 kPa	747.7 ± 1.7
363.15 K, 25000 kPa	752.8 ± 1.7
363.15 K, 30000 kPa	757.7 ± 1.7
363.15 K, 35000 kPa	762.2 ± 1.8
363.15 K, 40000 kPa	766.5 ± 1.8
363.15 K, 45000 kPa	770.5 ± 1.8
363.15 K, 50000 kPa	774.3 ± 1.8
363.15 K, 55000 kPa	777.7 ± 1.8
363.15 K, 60000 kPa	780.9 ± 1.8
373.15 K, 1000 kPa	715.3 ± 2.7
373.15 K, 5000 kPa	720.6 ± 2.7
373.15 K, 10000 kPa	727 ± 2.7
373.15 K, 15000 kPa	733 ± 2.7
373.15 K, 20000 kPa	738.7 ± 2.7
373.15 K, 25000 kPa	744.2 ± 2.7
373.15 K, 30000 kPa	749.3 ± 2.7
373.15 K, 35000 kPa	754.1 ± 2.7
373.15 K, 40000 kPa	758.6 ± 2.7
373.15 K, 45000 kPa	762.8 ± 2.7
373.15 K, 50000 kPa	766.7 ± 2.8
373.15 K, 55000 kPa	770.2 ± 2.8
373.15 K, 60000 kPa	773.5 ± 2.8
393.15 K, 1000 kPa	692.2 ± 2.7
393.15 K, 5000 kPa	698.4 ± 2.7
393.15 K, 10000 kPa	705.8 ± 2.7
393.15 K, 15000 kPa	712.8 ± 2.7
393.15 K, 20000 kPa	719.4 ± 2.7
393.15 K, 25000 kPa	725.6 ± 2.7
393.15 K, 30000 kPa	731.4 ± 2.7
393.15 K, 35000 kPa	736.8 ± 2.7
393.15 K, 40000 kPa	741.8 ± 2.7
393.15 K, 45000 kPa	746.4 ± 2.8
393.15 K, 50000 kPa	750.7 ± 2.8
393.15 K, 55000 kPa	754.5 ± 2.8
393.15 K, 60000 kPa	757.9 ± 2.8
413.15 K, 1000 kPa	666.3 ± 2.7
413.15 K, 5000 kPa	673.6 ± 2.7
413.15 K, 10000 kPa	682.3 ± 2.7
413.15 K, 15000 kPa	690.5 ± 2.7
413.15 K, 20000 kPa	698.1 ± 2.7
413.15 K, 25000 kPa	705.3 ± 2.7
413.15 K, 30000 kPa	712 ± 2.7
413.15 K, 35000 kPa	718.2 ± 2.7
413.15 K, 40000 kPa	723.8 ± 2.8
413.15 K, 45000 kPa	729 ± 2.8
413.15 K, 50000 kPa	733.7 ± 2.8
413.15 K, 55000 kPa	737.9 ± 2.8
413.15 K, 60000 kPa	741.5 ± 2.8
